Assay: Normal organ dosimetry Cycle 1: SPECT/CT, TIACs, OLINDA 2.2.3 absorbed radiation dose
Format: in vivo, human
Conditions: for Absorbed Dose, Mean / Absorbed Dose, max / Absorbed Dose, median / Absorbed Dose, min: n = 26
Protocol: This Example presents the biodistribution, dosimetry, and pharmacokinetics (PK) results of a PK/Dosimetry sub-study performed as part of a Phase III trial. Twenty-seven (27) patients were administered a target activity of 7.4±10% GBq of ^177Lu-PSMA-I&T and underwent single photon emission computed tomography (SPECT)/computed tomography (CT) imaging at four timepoints (4 h, 24 h, 48 h, and 168 h). Image data was analysed to compute time-activity curves (TACs) and subsequently time-integrated activity coefficients (TIACs) in each organ of interest and in organs showing appreciable and meaningful ^177Lu-PSMA-I&T activity. Organ Level Internal Dose Assessment (OLINDA 2.2.3) was used to compute organ and whole body absorbed radiation doses for each patient.
All participating sites underwent a rigorous site setup process during which all dose calibrators, scanners, and gamma counters used in the sub-study were calibrated. Sites were allowed to enroll patients in the sub-study only after the completion and approval of all site setup processes by Invicro. Patients underwent SPECT/CT imaging, with anatomical coverage typically extending from the salivary glands to the pelvis, following the administration of a targeted 7.4±10% GBq of ^177Lu-PSMA-I&T at cycle 1. SPECT/CT imaging was performed at four timepoints: 4 h, 24 h, 48 h, and 168 h post-injection. Additionally, a subset of patients imaged at Cycle 1 (16 out of 27), were also imaged at Cycle 3 (Table 2).
The imaging data was analyzed using Invicro's VivoQuant software, a validated software used in a 21 CFR § 11-compliant workflow. The general quantification approach was based on the principles detailed in the Medical Internal Radiation Dose (MIRD) Pamphlet No. 16, No 23, and No 26 as appropriate.
Volume of interest (VOI) (kidneys, bladder, liver, lumbar vertebrae L2-L4, lacrimal glands, salivary glands [parotid and submandibular glands], and whole body) were delineated on each dataset by a trained image analyst. […] Organs were segmented either by drawing the entire contour of the organ, or by placing a sphere in a representative region of the organ and then multiplying by the organ's effective mass (based on patient's height and weight). Segmentation methods for each organ are specified in Table 3 and were consistently applied to each patient.
Clearance of the radiopharmaceutical was derived from a data-appropriate fit of each organ's TAC. Depending on the TAC's shape, the data was fitted with the sum of one, two, or three exponentials, or using a rise and fall model. Fitting was performed with in-house Python software. TIACs were calculated through analytical integration of the curve fit extrapolated to infinity. […] A whole-body TAC was derived from delineating the imaged body. The remainder activity was determined by subtracting the cumulative organ TIACs from the whole body TIAC.
Organ TIACs were input into OLINDA 2.2.3 for the computation of organ and whole-body absorbed doses, using International Commission on Radiological Protection (ICRP)-103 weighing factors. The ICRP-89 derived male phantom was used for dose estimation. Organs and body mass as defined by ICRP-89 were scaled based on height and mass using patient effective mass.^4 The voiding bladder model as implemented in OLINDA was used to determine bladder TIAC, assuming a voiding interval of 4 hours. The human alimentary tract model (HAT model) described in ICRP 100 and implemented in OLINDA was used to compute doses to the small intestine, right colon, left colon and rectum for patients showing clearance through the GI tract. The fraction of injected activity (fIA) cleared via the GI tract was determined by taking the peak fIA in the GI tract over all the imaging timepoints. […] The Red Marrow mass in L2-L4 was assumed to be 6.7% of the total red marrow mass.

[1] = Adrenals, 16 patients imaged at cycle 1 and 3
[2] = Brain, 16 patients imaged at cycle 1 and 3
[3] = Cycle 1, target activity 7.4±10% GBq, patients with mCRPC
[4] = Esophagus, 16 patients imaged at cycle 1 and 3
[5] = Eyes, 16 patients imaged at cycle 1 and 3
[6] = Gallbladder wall, 16 patients imaged at cycle 1 and 3
[7] = Heart wall, 16 patients imaged at cycle 1 and 3

O=C([O-])CC[C@H](NC(=O)N[C@@H](CCCCNC(=O)CCCCCCC(=O)NCCCC[C@@H](NC(=O)[C@@H](Cc1ccccc1)NC(=O)[C@@H](Cc1ccc(O)c(I)c1)NC(=O)CC[C@H](C(=O)[O-])N1CCN(CC(=O)[O-])CCN(CC(=O)[O-])CCN(CC(=O)[O-])CC1)C(=O)[O-])C(=O)[O-])C(=O)[O-].[177Lu+3].[H+].[H+].[H+].[H+].[H+] [^177Lu-PSMA I&T, (3S,7S,26R,29R,32R,37R)-29-benzyl-32-(4-hydroxy-3-iodobenzyl)-5,13,20,28,31,34-hexaoxo-37-(4,7,10-tris(carboxymethyl)-1,4,7,10-tetraazacyclododecan-1-yl)-4,6,12,21,27,30,33-heptaazaheptatriacontane-1,3,7,26,37-pentacarboxylic acid; lutetium-177 (III)]
Absorbed Dose in Cycle 1, Mean [1]: 0.02 Gy/GBq
Absorbed Dose in Cycle 1, max [1]: 0.08 Gy/GBq
Absorbed Dose in Cycle 1, min [1]: 0.01 Gy/GBq
Absorbed Dose, Mean (Adrenals, Cycle 1): 0.02 Gy/GBq
Absorbed Dose, max (Adrenals, Cycle 1): 0.08 Gy/GBq
Absorbed Dose, median (Adrenals, Cycle 1): 0.02 Gy/GBq
Absorbed Dose, min (Adrenals, Cycle 1): 0.01 Gy/GBq
Absorbed Dose in Cycle 1, Mean (Adrenals, N = 16): 0.02 Gy/GBq
Absorbed Dose in Cycle 1, max (Adrenals, N = 16): 0.08 Gy/GBq
Absorbed Dose in Cycle 1, min (Adrenals, N = 16): 0.01 Gy/GBq
Absorbed Dose in Cycle 1, Mean [2]: 0.01 Gy/GBq
Absorbed Dose in Cycle 1, max [2]: 0.07 Gy/GBq
Absorbed Dose in Cycle 1, min [2]: 0.00 Gy/GBq
Absorbed Dose, Mean (Brain, Cycle 1): 0.01 Gy/GBq
Absorbed Dose, max (Brain, Cycle 1): 0.07 Gy/GBq
Absorbed Dose, median (Brain, Cycle 1): 0.01 Gy/GBq
Absorbed Dose, min (Brain, Cycle 1): 0.00 Gy/GBq
Absorbed Dose in Cycle 1, Mean (Brain, N = 16): 0.01 Gy/GBq
Absorbed Dose in Cycle 1, max (Brain, N = 16): 0.07 Gy/GBq
Absorbed Dose in Cycle 1, min (Brain, N = 16): 0.00 Gy/GBq
mean red marrow (bone marrow) absorbed radiation dose (Cycle 1, image-based, L2-L4): 0.08±0.12 Gy/GBq
mean red marrow absorbed dose (Cycle 1, remaining 20 patients, excluding six high-marrow-dose cases and the superscan patient): 0.02±0.02 Gy/GBq
absorbed radiation dose, salivary glands (mean ± SD) (Cycle 1, target activity 7.4±10% GBq, patient 12-004 excluded): 0.19±0.16 Gy/GBq
absorbed radiation dose, kidneys (mean ± SD) [3]: 0.41±0.15 Gy/GBq
absorbed radiation dose, lacrimal glands (mean ± SD) [3]: 0.40±0.36 Gy/GBq
absorbed radiation dose, left colon (mean ± SD) [3]: 0.47±0.31 Gy/GBq
absorbed radiation dose, rectum (mean ± SD) [3]: 0.44±0.30 Gy/GBq
absorbed radiation dose, urinary bladder (mean ± SD) [3]: 0.41±0.05 Gy/GBq
Absorbed Dose in Cycle 1, Mean [4]: 0.01 Gy/GBq
Absorbed Dose in Cycle 1, max [4]: 0.07 Gy/GBq
Absorbed Dose in Cycle 1, min [4]: 0.00 Gy/GBq
Absorbed Dose, Mean (Esophagus, Cycle 1): 0.02 Gy/GBq
Absorbed Dose, max (Esophagus, Cycle 1): 0.07 Gy/GBq
Absorbed Dose, median (Esophagus, Cycle 1): 0.01 Gy/GBq
Absorbed Dose, min (Esophagus, Cycle 1): 0.00 Gy/GBq
Absorbed Dose in Cycle 1, Mean (Esophagus, N = 16): 0.01 Gy/GBq
Absorbed Dose in Cycle 1, max (Esophagus, N = 16): 0.07 Gy/GBq
Absorbed Dose in Cycle 1, min (Esophagus, N = 16): 0.00 Gy/GBq
Absorbed Dose in Cycle 1, Mean [5]: 0.01 Gy/GBq
Absorbed Dose in Cycle 1, max [5]: 0.07 Gy/GBq
Absorbed Dose in Cycle 1, min [5]: 0.00 Gy/GBq
Absorbed Dose, Mean (Eyes, Cycle 1): 0.01 Gy/GBq
Absorbed Dose, max (Eyes, Cycle 1): 0.07 Gy/GBq
Absorbed Dose, median (Eyes, Cycle 1): 0.01 Gy/GBq
Absorbed Dose, min (Eyes, Cycle 1): 0.00 Gy/GBq
Absorbed Dose in Cycle 1, Mean (Eyes, N = 16): 0.01 Gy/GBq
Absorbed Dose in Cycle 1, max (Eyes, N = 16): 0.07 Gy/GBq
Absorbed Dose in Cycle 1, min (Eyes, N = 16): 0.00 Gy/GBq
Absorbed Dose in Cycle 1, Mean [6]: 0.02 Gy/GBq
Absorbed Dose in Cycle 1, max [6]: 0.07 Gy/GBq
Absorbed Dose in Cycle 1, min [6]: 0.00 Gy/GBq
Absorbed Dose, Mean (Gallbladder wall, Cycle 1): 0.02 Gy/GBq
Absorbed Dose, max (Gallbladder wall, Cycle 1): 0.07 Gy/GBq
Absorbed Dose, median (Gallbladder wall, Cycle 1): 0.01 Gy/GBq
Absorbed Dose, min (Gallbladder wall, Cycle 1): 0.00 Gy/GBq
Absorbed Dose in Cycle 1, Mean (Gallbladder wall, N = 16): 0.02 Gy/GBq
Absorbed Dose in Cycle 1, max (Gallbladder wall, N = 16): 0.07 Gy/GBq
Absorbed Dose in Cycle 1, min (Gallbladder wall, N = 16): 0.00 Gy/GBq
Absorbed Dose in Cycle 1, Mean [7]: 0.01 Gy/GBq
Absorbed Dose in Cycle 1, max [7]: 0.07 Gy/GBq
Absorbed Dose in Cycle 1, min [7]: 0.00 Gy/GBq
Absorbed Dose, Mean (Heart wall, Cycle 1): 0.02 Gy/GBq
Absorbed Dose, max (Heart wall, Cycle 1): 0.07 Gy/GBq
Absorbed Dose, median (Heart wall, Cycle 1): 0.01 Gy/GBq
Absorbed Dose, min (Heart wall, Cycle 1): 0.00 Gy/GBq
Absorbed Dose in Cycle 1, Mean (Heart wall, N = 16): 0.01 Gy/GBq
Absorbed Dose in Cycle 1, max (Heart wall, N = 16): 0.07 Gy/GBq

— patent US20250032651A1, “[177LU] LUTETIUM-PSMA I&T COMPOSITION AND DOSIMETRY, KIT, METHOD OF MAKING, AND METHOD OF USING THEREOF” (Curium US LLC, priority 2022, published 2025)
